In the NIST ThermoML archive (doi:10.1016/j.jct.2017.12.023):

Assay: xn = mol fraction of the nth substance listed
Details: 100 kPa, Liquid; for viscosity: Concentric cylinders viscometry; for mass density: Vibrating tube method

CCOS(=O)(=O)[O-].CCn1cc[n+](C)c1 [1-ethyl-3-methylimidazolium ethyl sulfate] + CCCCCCO
Details | mass density, 308.15 K [kg/m3] | mass density, 313.15 K [kg/m3] | mass density, 318.15 K [kg/m3] | mass density, 323.15 K [kg/m3] | viscosity, 308.15 K [mPa·s] | viscosity, 313.15 K [mPa·s] | viscosity, 318.15 K [mPa·s] | viscosity, 323.15 K [mPa·s]
x1 = 0.1016 | 869.3 | 865.72 | 862.11 | 858.5 | 5.153 | 4.475 | 3.975 | 3.566
x1 = 0.2016 | 924.31 | 920.76 | 917.2 | 913.65 | 7.242 | 6.296 | 5.593 | 4.959
x1 = 0.3005 | 973.98 | 970.44 | 966.93 | 963.42 | 10.01 | 8.67 | 7.683 | 6.841
x1 = 0.3989 | 1019.25 | 1015.75 | 1012.26 | 1008.79 | 13.6 | 11.7 | 10.3 | 9.127
x1 = 0.4975 | 1060.99 | 1057.52 | 1054.07 | 1050.64 | 18.02 | 15.4 | 13.44 | 11.85
x1 = 0.5956 | 1099.3 | 1095.87 | 1092.45 | 1089.05 | 23.46 | 19.84 | 17.17 | 14.98
x1 = 0.6647 | 1124.65 | 1121.24 | 1117.84 | 1114.46 | 27.77 | 23.34 | 20.06 | 17.41
x1 = 0.7947 | 1168.81 | 1165.42 | 1162.05 | 1158.7 | 37.67 | 31.23 | 26.51 | 22.64
x1 = 0.897 | 1200.48 | 1197.11 | 1193.76 | 1190.42 | 46.51 | 38.33 | 32.18 | 27.41
x1 = 1 | 1229.49 | 1226.13 | 1222.79 | 1219.46 | 57.98 | 47.26 | 39.25 | 32.94
